pIC50: −log10 of the molar value. Numbered stars: 1 amine (or outer) side, 2 acyl side, 3 side chain; on linkers, the order of the positions; unused ones are H or OH. Bridge positions count the residues as written; N and C are the ends. Square brackets hold non-standard residues; d marks the D form. Peptide text beside a SMILES is read from it. * marks the point of attachment. X1 = CC[C@H](C)[C@@H](N[*:1])[C@@H](O)CC(=O)O[C@H](C(=O)[C@H](C)C(=O)[*:2])C(C)C; NMeY = CN[C@@H](Cc1ccc(O)cc1)C(=O)O; dNMeL = CN[C@H](CC(C)C)C(=O)O; Pyruvoyl = CC(=O)C(=O)*
Columns and labels:
human MM cell lines = assay: MTT colorimetric survival assay, panel of MM cell lines; format: cell-based; settings: for the overwhelming majority of the MM cell lines of the panel (FIG. 1), read-out: IC50 doses
Experimental: (§1) Cell survival was examined using the 3-(4,5-dimethylthiazol-2-yl)-2,5-diphenyltetrazolium bromide (MTT; Sigma Chemical, St Louis, Mo.) colorimetric assay, as previously described (Mitsiades C. S. et al. Blood. 2001, 98, 795-804; Mitsiades N. et al. Proc Natl Acad Sci USA. 2002, 99, 14374-14379; Mitsiades N. et al. Blood. 2003, 101, 2377-2380). Briefly, cells were plated in 48-well plates at 70% to 80% confluence in the presence of 2.5% fetal bovine serum (FBS) and in the presence of Aplidine at final concentration of 0-100 nM or DMSO vehicle control. At the end of each treatment, cells were incubated with 1 mg/mL MTT for 4 hours at 37° C.; a mixture of isopropanol and 1 N HCl (23:2, vol/vol) was then added under vigorous pipetting to dissolve the formazan crystals. Dye absorbance (A) in viable cells was measured at 570 nm, with 630 nm as a reference wavelength. Cell viability was estimated as a percentage of the value of untreated controls. All experiments were repeated at least 3 times, and each experimental condition was repeated at least in triplicate wells in each experiment. Data reported are average values±SD of representative experiments. […]

primary MM tumor cells [1] = assay: MTT survival assay, primary MM tumor cells; format: cell-based, human; settings: 10 primary tumor specimens from multi-drug resistant MM patients; 20 nM for 48 hrs (FIG. 2)
Experimental: as §1

[2] = tested on: MM-1S human MM cells stably transfected with Bcl-2; assay: MTT survival assay, Bcl-2-transfected MM-1S cells; format: cell-based; settings: Bcl-2-transfected MM-1S cells (FIG. 1)
Experimental: as §1

[3] = tested on: MM-1S human MM cells stably transfected with myristoylated Akt; assay: MTT survival assay, myrAkt-transfected MM-1S cells; format: cell-based; settings: myrAkt-transfected MM-1S cells (FIG. 1)
Experimental: as §1

[4] = tested on: primary MM tumor cells co-cultured with BMSCs; assay: Co-culture of MM cells with bone marrow stromal cells, flow cytometry of viable CD138+ cells; format: cell-based, human; settings: 48 hours, flow-cytometric determination of cell death (FIG. 3)
Experimental: (§2) We therefore investigated whether aplidine can also overcome the molecular sequelae of the interaction of BMSCs with MM cells and achieve anti-MM activity in this context. We thus performed in vitro co-culture assays of MM cells with BMSCs as previously described: BMSCs were grown on 24-well plates to confluency. […] Flow cytometric analysis was performed to detect the CD138+ population of viable MM cells and the effect of aplidine on MM cell viability was expressed as % of viable cell numbers in comparison to the respective vehicle-treated cultures.

VEGF secretion = assay: Quantification of VEGF secretion by ELISA; format: cell-based, human; settings: 20 nM
Text: MM cell adhesion to BMSCs induces increased secretion of angiogenic cytokines, such as vascular endothelial growth factor (VEGF), an event deemed of major significance for the recruitment of new blood vessels at the sites of MM cells in the BM milieu. […] The supernatants were collected and assayed for VEGF concentration by enzyme-linked immunosorbent assay (ELISA) using a commercially available kit (VEGF ELISA kit; R&D Systems), according to the instructions of the manufacturer.

primary MM tumor cells [5] = assay: MTT survival assay, combination with doxorubicin; format: cell-based, human; settings: aplidine 2 nM with doxorubicin 10 ng/mL, primary MM tumor sample (FIG. 5)
[6] = tested on: multiple myeloma line overexpressing Bcl-2; assay: XTT or MTS cell viability assay, Bcl-2 overexpressing MM line; format: cell-based; settings: cells in culture, XTT or MTS (FIG. 7)
Experimental: Aplidine was tested against various established cells in culture.

BMSCs = settings: at the aplidine doses used in the co-culture
Experimental: as §2

[7] = tested on: multiple myeloma lines resistant to dexamethasone (MM 1.R); settings: cells in culture, XTT or MTS (FIG. 6)
Experimental: The cells used were: • multiple myeloma cells (MM1.S) • multiple myeloma lines resistant to dexamethasone (MM 1.R) • a multiple myeloma line overexpressing Bcl-2
For established cell lines, cells were plated in 96 well plates and allowed to grow for 24 h prior to addition of drugs. Cells were incubated with drug for indicated times and cell viability was measured by the XTT or MTS assay using an automated plate reader.

[8] = tested on: non-small-cell lung tumor cells; settings: cited from earlier work
colon tumor cells = settings: cited from earlier work
B16 melanoma = settings: murine tumors such as B16 melanoma; cited from earlier work
breast MX-1 = settings: mice bearing human xenografted tumors; cited from earlier work
colon CX-1 = settings: mice bearing human xenografted tumors; cited from earlier work
[9] = tested on: gastric, prostate and Burkitts lymphoma human xenografts; settings: subcutaneous implanted gastric; cited from earlier work
bladder carcinoma = bladder carcinoma in the hollow fiber; cited from earlier work
[10] = phase I/II trials; cited from earlier work
[11] = solubilised aplidine; cited from earlier work
[12] = tested on: NCI human in vitro panel cell lines; settings: cited from earlier work

CC[C@H](C)[C@H]1NC(=O)[C@@H](NC(=O)[C@@H](CC(C)C)N(C)C(=O)[C@@H]2CCCN2C(=O)C(C)=O)[C@@H](C)OC(=O)[C@H](Cc2ccc(OC)cc2)N(C)C(=O)[C@@H]2CCCN2C(=O)[C@H](CC(C)C)NC(=O)[C@@H](C)C(=O)[C@H](C(C)C)OC(=O)C[C@@H]1O [Aplidine, Dehydrodidemnin B] (Pyruvoyl-P[dNMeL]T[X1]LP[NMeY](Me); ester 3-C)
pIC50 (human MM cell lines): ≥ 8.00
in vitro anti-MM activity (primary MM tumor cells [1]): consistent with the results obtained from the testing of our cell line panel
sensitivity to aplidine vs. empty-vector transfected cells [2]: did not have lower sensitivity
sensitivity to aplidine vs. empty-vector transfected cells [3]: did not have lower sensitivity
effect of MM-BMSC interaction on in vitro anti-MM activity [4]: did not significantly attenuate
VEGF secretion when MM cells are co-cultured with BMSCs (VEGF secretion; 12-hour treatment, co-culture (FIG. 4B)): counteract the increase in VEGF secretion
secretion of VEGF by MM cells (VEGF secretion; 12-hour treatment, primary MM tumor cells (FIGS. 4A and 4B)): suppress the secretion of VEGF
VEGF secretion by BMSCs (VEGF secretion; 12 hrs, BMSCs (FIG. 4B)): suppresses the VEGF secretion
responsiveness of MM cells to doxorubicin in combination with Aplidine (primary MM tumor cells [5]): increased responsiveness to doxorubicin
growth of Bcl-2 overexpressing MM cells [6]: inhibits growth
survival of BMSCs (BMSCs): did not significantly affect
growth inhibition of dexamethasone resistant MM1.R cells compared with MM1.S [7]: as effectively as the parenteral line (MM1.S)
pIC50 [8]: 9.74
pIC50 (colon tumor cells): 9.35
in vivo activity (B16 melanoma): in vivo activity
in vivo activity (breast MX-1): confirm activity
in vivo activity (colon CX-1): confirm activity
in vivo antitumor activity [9]: in vivo antitumor activity
in vivo antitumor activity (bladder carcinoma): in vivo antitumor activity
dose-limiting toxicity [10]: muscular toxicity
myelosuppression [10]: remarkable lack of severe myelosuppression
degradation under heat and light stress testing conditions [11]: substantial degradation
selectivity in the NCI human in vitro panel [12]: selectivity for non-small-cell lung cancer (NSCLC), melanoma, ovarian and colorectal cancer cell lines

— patent US7381703B2, “Aplidine for multiple myeloma treatment” (Dana-Faber Cancer Institute, Inc., priority 2003, dated 2008)
